Experimental data published in US20220280461A1, “SOLID ORAL DOSAGE FORM COMPRISING NAPROXEN AND VITAMIN B12” (DSM IP ASSETS B.V., priority 2019, published 2022).

Assay: Bulk density, tapped density and Carr Index (flowability) of raw materials and granules
Description: The Carr Index is calculated by the formula 100×(1-BD/TD) and is used as an indication of the flowability.

Description (physical characterization of powder): very lumpy
Structure (SMILES): COc1ccc2cc([C@H](C)C(=O)O)ccc2c1 [Naproxen Sodium, naproxen sodium]
